From patent US20160193211A1, “COMBINATIONS OF A BTK INHIBITOR AND FLUOROURACIL FOR TREATING CANCERS” (priority 2013, published 2016)

Assays:
[1] = system: HCT116 overexpressing p65BTK (HCT116p65BTK); settings: 200 μM 5FU, 72 hours
HCT116p53KO xenografts = assay: In vivo treatment of drug-resistant xenografts; settings: for average volume of the tumor masses: after 28 days, ibrutinib 25 mpk oral gavage once a day 5 days a week, 5FU 60 mg/kg i.p. twice a week
HCT116 cells = assay: Photographs of cells at 72 hours of incubation (FIG. 5b); settings: 10 μM 5FU or 20 μM ibrutinib
HCT116 xenografts = assay: In vivo treatment of drug-sensitive xenografts; settings: for average volume of the tumor masses: after 28 days; for average volume of the tumor masses / significance of difference in tumor size vs vehicle-treated (untreated) group: 5FU 60 mpk
[2] = system: HCT116p53KO, SW480, HT-29, HCT116 and RKO colon carcinoma cell lines; assay: Cell viability, calcein assay, ibrutinib alone (FIG. 15); type: cell-based; settings: 72 hs
[3] = system: HCT116p53KO, SW480, DLD-1 and HCT116 colon carcinoma cell lines; assay: In vitro cell proliferation assay (short term, CellTiter 96 AQueous); type: cell-based; settings: ibrutinib 0 to 10 μM, up to 72 h
SW480 colon cancer cells = assay: Cell viability, calcein assay (FIG. 6); type: cell-based; settings: ibrutinib 20 μM with 5FU 200 μM or oxaliplatin 20 μM; oxaliplatin 20 μM alone; 72 hs
Protocol: At the end of the treatment cell viability was evaluated by calcein assay.

O=c1[nH]cc(F)c(=O)[nH]1 [5FU, 5-fluoro-1H,3H-pyrimidine-2,4-dione]
viability: response to the cytotoxic effect of 5FU [1]: become resistant to the cytotoxic effect of 5FU
average volume of the tumor masses (HCT116p53KO xenografts): ≈ 530 mm^3
significance of reduction in tumor volume vs the untreated group (HCT116p53KO xenografts; ibrutinib 25 mpk, 5FU 60 mpk, end of treatment (FIG. 9b)): not significant
toxicity seen in photographs, drugs used singularly (HCT116 cells): no toxicity is evident
average volume of the tumor masses (HCT116 xenografts; ibrutinib 25 mpk): ≈ 226 mm^3
average volume of the tumor masses (HCT116 xenografts; ibrutinib 50 mpk): ≈ 226 mm^3
significance of difference in tumor size vs vehicle-treated (untreated) group (HCT116 xenografts; ibrutinib 25 mpk): significant
percentage of proliferating (Ki67-positive) cells compared to vehicle or ibrutinib alone (HCT116 xenografts; ibrutinib 25 mpk, 5FU 60 mpk (FIG. 12b)): significantly reduces the percentage of proliferating cells
significance of difference in tumor size vs vehicle-treated (untreated) group (HCT116 xenografts; ibrutinib 50 mpk): significant
percentage of proliferating (Ki67-positive) cells compared to vehicle or ibrutinib alone (HCT116 xenografts; ibrutinib 50 mpk, 5FU 60 mpk (FIG. 13b)): significantly reduces the percentage of proliferating cells

C=CC(=O)N1CCC[C@@H](n2nc(-c3ccc(Oc4ccccc4)cc3)c3c(N)ncnc32)C1 [ibrutinib, 1-[(3R)-3-[4-amino-3-(4-phenoxyphenyl)pyrazolo[3,4-d]pyrimidin-1-yl]piperidin-1-yl]prop-2-en-1-one]
toxicity by cell type ([2]; highest concentration of ibrutinib (range 0 to 30 μM)): preferentially toxic for 5FU drug-resistant, p53-null
viability ([2]; ibrutinib up to 20 μM, all cell lines): decreases the viability in a dose-dependent manner
average volume of the tumor masses (HCT116p53KO xenografts): ≈ 760 mm^3
anti-tumoral effect (tumor volume vs untreated group) (HCT116p53KO xenografts; ibrutinib 50 mpk alone (FIG. 10b)): has an anti-tumoral effect on its own
capacity of the cells to proliferate [3]: does not alter the capacity of the cells to proliferate
toxicity seen in photographs, drugs used singularly (HCT116 cells): no toxicity is evident
average volume of the tumor masses (HCT116 xenografts; ibrutinib 25 mpk): ≈ 347 mm^3
average volume of the tumor masses (HCT116 xenografts; ibrutinib 50 mpk): ≈ 372 mm^3
significance of difference in tumor size vs vehicle-treated (untreated) group (HCT116 xenografts; ibrutinib 25 mpk): not statistically significant
significance of difference in tumor size vs vehicle-treated (untreated) group (HCT116 xenografts; ibrutinib 50 mpk): not statistically significant
growth-reducing and anti-proliferative effect on sensitive xenografts (HCT116 xenografts; ibrutinib alone, 25 or 50 mpk): by itself is ineffective in these kind of tumors

O=C(O)C(=O)O.[NH-][C@@H]1CCCC[C@H]1[NH-].[Pt+2] [oxaliplatin]
reversion of drug resistance (viability) (SW480 colon cancer cells): Reversion of resistance was not obtained
